Results: paper PMC3715890, “A Cyclic Peptide Inhibitor of HIF-1 Heterodimerization That Inhibits Hypoxia Signaling in Cancer Cells” (Journal of the American Chemical Society, 2013)
Entries after “also recorded” stand apart in the source; their conditions may differ.

Key:
[1] = test system: VEGF mRNA in hypoxic MCF-7 cells; test: VEGF mRNA qPCR, MCF-7; assay type: cell-based; settings: MCF-7, hypoxia 16 h, 100 μM
Experimental: Cells were treated with the stated concentrations of inhibitor (P1, P2, or P3) and incubated in normoxia for 4 h, followed by incubation in a hypoxic environment. All manipulation of cell pellets (e.g., lysis, mRNA, and protein extraction) was conducted in a hypoxic environment.
Total RNA was extracted from MCF-7 and U2OS cells using RNeasy Mini Kit (74104, QIAGEN) and quantified using a Nanodrop ND-1000 spectrophotometer. Complementary DNA was synthesized in a 20 μL reaction containing 1 μg of total RNA, using qScript cDNA SuperMix (95048-100, Quanta Biosciences) according to the manufacturer’s instructions. Quantitative real-time PCRs were performed using Universal Taqman PCR master mix (Applied Biosystems) >and the Taqman gene expression assay of interest (Applied Biosystems) on an ABI StepOnePlus Real-Time PCR system (Applied Biosystems). Expression assays used in this study were HIF-1α (00936376_m1), VEGF-A (Hs00173626_m1), CAIX (Hs00154208_m1), LOX (Hs00942480_m1), HIF2α (Hs01026149_m1), CITED2 (Hs01897804_s1), and 18S (Hs99999901_m1). All expression values were normalized using expression of 18S.

[2] = test system: tubule formation in hypoxic human umbilical vein endothelial cells (HUVEC); test: HUVEC tubularization; assay type: cell-based; settings: 250 μM
PAS-B domain of HIF-1α = target: T1, PAS-B domain of HIF-1α (Homo sapiens, UniProt Q16665); test: Isothermal titration calorimetry, PAS-B; assay type: binding; settings: ITC, 25 °C, pH 7.5, 10 µM PAS-B
T1 construct: Per-ARNT-Sim-B (PAS-B, amino acids 235–350) domains; His (N); made in house; host or cells: E. coli BL21(DE3)

[3] = test system: HIF-2 (HIF-dependent luciferase reporter, MCF-7 cells); test: HIF-2 luciferase reporter assay, MCF-7; assay type: cell-based; settings: MCF-7, transfected HIF-2α
Source text: In addition, P1 had no effect on VEGF protein levels in hypoxic 786-O cells (Figure 6B). To further probe the effect of P1 on HIF-2, a luciferase reporter assay was developed and used. The assay was derived from the HIF-1 luciferase reporter assay detailed above (Figure 2C and D) and adapted for HIF-2 by replacing the plasmid encoding HIF-1α with the equivalent plasmid encoding HIF-2α. […] P2 and P3 also had no effect on HIF-2 in this assay (Figure S9).
Endogenous HIF-1 luciferase reporter assays were conducted as previously reported in U2OS-HRE-luc[15] and MCF-7 cells.[46] For plasmid-expressed HIF-α luciferase reporter assays, MCF-7 and U2OS cells were transiently transfected with plasmids expressing HIF-1α, HIF-2α, or a blank control (pcDNA3.1-HIF-1α, pcDNA3.1-HIF-2α, or pcDNA3.1), a renilla-encoding control (phRL-TK), and a HIF-dependent firefly luciferase reporter construct (pGL2-TK-HRE), using Transfast (Promega) according to the manufacturer’s instructions. After 24 h, cells were recovered and plated (4000 cells/well) in 96-well plates (Perkin-Elmer) and incubated for 5 h before either hypoxic or aerobic incubation in presence or absence of cyclic peptide inhibitors. Firefly and renilla activities were determined using Dual-Glo Reagent (Promega) according to the manufacturer’s instructions. The luciferase signal was normalized using the corresponding renilla values.

T1 sequence (Q16665 235-350): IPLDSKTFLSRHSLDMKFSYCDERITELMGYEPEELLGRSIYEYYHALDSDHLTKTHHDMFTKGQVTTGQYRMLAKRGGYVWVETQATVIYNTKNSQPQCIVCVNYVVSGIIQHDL

Tat-cyclo-CRLMVL (head to tail) [P2, cyclo-CRLMVL tagged with Tat peptide via a disulfide bond; used as negative control]
VEGF mRNA [1]: had no effect | HUVEC tubularization / tubule length [2]: has no effect | binding to PAS-B domain (PAS-B domain of HIF-1α): no binding; also recorded: did not bind | effect on HIF-2 luciferase reporter signal [3]: do not affect
